For orientation: IC50 means the concentration needed to halve the response being measured.

Chain of USP30 (Q70CQ3 57-517): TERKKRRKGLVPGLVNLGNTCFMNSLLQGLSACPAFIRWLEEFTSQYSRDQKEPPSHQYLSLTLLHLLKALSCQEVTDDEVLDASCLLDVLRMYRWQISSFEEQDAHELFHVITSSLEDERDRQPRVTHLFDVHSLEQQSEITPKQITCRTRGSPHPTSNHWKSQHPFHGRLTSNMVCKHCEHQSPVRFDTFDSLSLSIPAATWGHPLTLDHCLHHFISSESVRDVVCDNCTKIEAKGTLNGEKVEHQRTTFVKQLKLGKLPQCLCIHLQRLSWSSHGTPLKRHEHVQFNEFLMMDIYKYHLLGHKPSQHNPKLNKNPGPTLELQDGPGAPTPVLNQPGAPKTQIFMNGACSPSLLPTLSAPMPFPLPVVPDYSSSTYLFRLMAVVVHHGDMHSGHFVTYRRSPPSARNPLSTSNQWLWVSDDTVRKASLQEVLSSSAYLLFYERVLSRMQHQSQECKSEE

For the assay, the target named is USP30 (Homo sapiens (Human), UniProt Q70CQ3). In words: USP30 Biochemical IC50 Assay. As to conditions: fluorescence polarisation, TAMRA labelled peptide linked to ubiquitin; 30 min pre-incubation, read after 2 h; read-out: IC50 range. On the procedure:
Reactions were performed in duplicate in black 384 well plates (small volume, Greiner 784076) in a final reaction volume of 21 μl. Either 1 μl of 50% DMSO or diluted compound was added to the plate. […] Enzyme and compound were incubated for 30 min at room temp. Reactions were initiated by the addition of 50 nM of TAMRA labelled peptide linked to ubiquitin via an iso-peptide bond as fluorescence polarisation substrate. Reactions were read immediately after addition of substrate and following a 2 h incubation at room temperature. Readings were performed on a Pherastar Plus (BMG Labtech). λ Excitation 540 nm; λ Emission 590 nm.
Background: Polarisation of emitted light reports the rotation of a fluorescent probe.
As to `N#Cc1ccccc1-c1cccc(-c2nc(C3CCCN3C#N)no2)c1` (stereo not shown) [Example 155, 2-(5-(2′-Cyano-[1,1′-biphenyl]-3-yl)-1,2,4-oxadiazol-3-yl)pyrrolidine-1-carbonitrile], the IC50 fell in the range of 100 to 1000 nM.

Consider `N#CN1CCC(c2nc3nccc(-c4ccccc4)c3[nH]2)C1` (stereo not shown) [Example 98, 3-(7-Phenyl-3H-imidazo[4,5-b]pyridin-2-yl)pyrrolidine-1-carbonitrile], for which the IC50 lay in the range of 1000 to 10000 nM.

Regarding `N#CN1CC[C@@H](c2noc(-c3cc(-c4ccccc4)ccn3)n2)C1` [Example 63, (R)-3-(5-(4-Phenylpyridin-2-yl)-1,2,4-oxadiazol-3-yl)pyrrolidine-1-carbonitrile], the IC50 was in the range of 100 to 1000 nM.

Take `N#CN1CCC(c2noc(-c3ccc(Br)cc3)n2)C1` (stereo not shown) [Example 60, 3-(5-(4-Bromophenyl)-1,2,4-oxadiazol-3-yl)pyrrolidine-1-carbonitrile]: the concentration for half-maximal inhibition (IC50) was 1000 to 10000 nM.

As for `N#CN1CCC(c2cc(-c3cccc(-c4ccc(Cl)cc4)c3)n[nH]2)C1` (stereo not shown) [Example 29, 3-(3-(4′-Chloro-[1,1′-biphenyl]-3-yl)-1H-pyrazol-5-yl)pyrrolidine-1-carbonitrile], the IC50 was 100 to 1000 nM.

Regarding `N#CN1CC[C@@H](c2noc(-c3ccnc(N4CCc5ccccc5C4)c3)n2)C1` [Example 65, (R)-3-(5-(2-(3,4-Dihydroisoquinolin-2(1H)-yl)pyridin-4-yl)-1,2,4-oxadiazol-3-yl)pyrrolidine-1-carbonitrile], the IC50 is 1000 to 10000 nM.

With `CN(C)C(=O)c1cccc(-c2cc(C3CCN(C#N)C3)[nH]n2)c1` (stereo not shown) [Example 8, 3-(5-(1-Cyanopyrrolidin-3-yl)-1H-pyrazol-3-yl)-N,N-dimethylbenzamide], the 50% inhibitory concentration (IC50) was in the range of 100 to 1000 nM.

In the case of `N#CN1CCC(c2n[nH]c(-c3ccnc(-c4ccccc4)c3)n2)C1` (stereo not shown) [Example 199, 3-(3-(2-Phenylpyridin-4-yl)-1H-1,2,4-triazol-5-yl)pyrrolidine-1-carbonitrile], the IC50 was 100 to 1000 nM.

For the compound `N#CN1CCC(c2cc(-c3ccc(-c4ccccc4)cn3)n[nH]2)C1` (stereo not shown) [Example 194, 3-(5-(5-Phenylpyridin-2-yl)-1H-pyrazol-3-yl)pyrrolidine-1-carbonitrile], the half-inhibitory concentration (IC50) is below 100 nM.

As for `N#CN1CCC(c2noc(-c3ccc4ncsc4c3)n2)C1` (stereo not shown) [Example 54, 3-(5-(Benzo[d]thiazol-6-yl)-1,2,4-oxadiazol-3-yl)pyrrolidine-1-carbonitrile], the 50% inhibitory concentration (IC50) was 100 to 1000 nM.

Regarding `N#Cc1cccc(C2CN(c3noc(C4CCN(C#N)C4)n3)C2)c1` (stereo not shown) [Example 197, 3-(3-(3-(3-Cyanophenyl)azetidin-1-yl)-1,2,4-oxadiazol-5-yl)pyrrolidine-1-carbonitrile], the IC50 is 100 to 1000 nM.

For the compound `Cn1c([C@@H]2CCCN2C#N)nc2cc(-c3ccccc3)ccc21` [Example 96, (S)-2-(1-Methyl-5-phenyl-1H-benzo[d]imidazol-2-yl)pyrrolidine-1-carbonitrile], the IC50 was 10000 to 100000 nM.

Regarding `N#CN1CCC(c2nc3ccc(-c4ccc(C(=O)NCc5ccccc5)cc4)cc3[nH]2)C1` (stereo not shown) [Example 79, N-Benzyl-4-(2-(1-cyanopyrrolidin-3-yl)-1H-benzo[d]imidazol-6-yl)benzamide], the IC50 was 100 to 1000 nM.

Regarding `N#Cc1cccc(-c2nccc(-c3nc([C@@H]4CCCN4C#N)no3)n2)c1` [Example 186, (S)-2-(5-(2-(3-Cyanophenyl)pyrimidin-4-yl)-1,2,4-oxadiazol-3-yl)pyrrolidine-1-carbonitrile], the half-inhibitory concentration (IC50) was below 100 nM.

`CC[C@@H]1CN(C#N)C[C@H]1c1cc(-c2cccc(-c3ccccc3)c2)n[nH]1` (relative stereo) [Example 43, trans-3-(3-([1,1′-biphenyl]-3-yl)-1H-pyrazol-5-yl)-4-ethylpyrrolidine-1-carbonitrile]: the IC50 lay in the range of 100 to 1000 nM.

As to `C[C@H]1CN(C#N)C[C@@H]1c1nc2cc(-c3ccccc3)cnc2[nH]1` (single isomer, unassigned) [Example 103, Trans-3-methyl-4-(6-phenyl-3H-imidazo[4,5-b]pyridin-2-yl)pyrrolidine-1-carbonitrile], the IC50 lay within 100 to 1000 nM.

As for `N#CN1CCCC1c1noc(-c2cccc(-c3ccccc3)n2)n1` (stereo not shown) [Example 142, 2-(5-(6-Phenylpyridin-2-yl)-1,2,4-oxadiazol-3-yl)pyrrolidine-1-carbonitrile], the half-inhibitory concentration (IC50) lay within 1000 to 10000 nM.

Take `N#CN1CCC(c2noc(-c3ccc(N4CCOCC4)cc3)n2)C1` (stereo not shown) [Example 61, 3-(5-(4-Morpholinophenyl)-1,2,4-oxadiazol-3-yl)pyrrolidine-1-carbonitrile]: the IC50 was in the range of 1000 to 10000 nM.

As for `COc1ccc(-c2cnc3[nH]c(C4CCN(C#N)C4)nc3c2)cn1` (stereo not shown) [Example 86, 3-(6-(6-Methoxypyridin-3-yl)-3H-imidazo[4,5-b]pyridin-2-yl)pyrrolidine-1-carbonitrile], the concentration for half-maximal inhibition (IC50) lay in the range of 100 to 1000 nM.

Consider `N#Cc1ccc(-c2cccc(-c3nc([C@@H]4CCCN4C#N)no3)n2)cc1` [Example 175, (S)-2-(5-(6-(4-Cyanophenyl)pyridin-2-yl)-1,2,4-oxadiazol-3-yl)pyrrolidine-1-carbonitrile], for which the IC50 was below 100 nM.

Consider `N#Cc1cnn(-c2cccc(-c3nc([C@@H]4CCCN4C#N)no3)c2)c1` [Example 190, (S)-1-(3-(3-(1-Cyanopyrrolidin-2-yl)-1,2,4-oxadiazol-5-yl)phenyl)-1H-pyrazole-4-carbonitrile], for which the half-inhibitory concentration (IC50) is 100 to 1000 nM.

On to `C[C@@H]1CN(C#N)C[C@H]1c1nc(-c2ccccc2)n[nH]1` (relative stereo) [Example 113, Trans 3-methyl-4-(3-phenyl-1H-1,2,4-triazol-5-yl)pyrrolidine-1-carbonitrile], for which the half-inhibitory concentration (IC50) fell in the range of 1000 to 10000 nM.

`N#Cc1ccc(-c2cnc3[nH]c(C4CCN(C#N)C4)nc3c2)cc1` (single isomer, unassigned) [Example 90, 3-(6-(4-Cyanophenyl)-3H-imidazo[4,5-b]pyridin-2-yl)pyrrolidine-1-carbonitrile]: the IC50 lay within 100 to 1000 nM.

Consider `N#Cc1cc(-c2cncc(-c3nc([C@@H]4CCCN4C#N)no3)n2)ccn1` [Example 203, (S)-4-(6-(3-(1-Cyanopyrrolidin-2-yl)-1,2,4-oxadiazol-5-yl)pyrazin-2-yl)picolinonitrile], for which the IC50 was below 100 nM.

Take `N#CN1CCC(c2nc3cc(-c4ccccc4)cnc3[nH]2)C1` (stereo not shown) [Example 83, 3-(6-Phenyl-3H-imidazo[4,5-b]pyridin-2-yl)pyrrolidine-1-carbonitrile]: the IC50 was 100 to 1000 nM.

Regarding `N#CN1CCC(c2[nH]nc(-c3cccc(-c4ccccc4)c3)c2F)C1` (single isomer, unassigned) [Example 16, 3-(3-([1,1′-Biphenyl]-3-yl)-4-fluoro-1H-pyrazol-5-yl)pyrrolidine-1-carbonitrile], the IC50 is 100 to 1000 nM.

Take `CC[C@@H]1CN(C#N)C[C@H]1c1cc(-c2cccc(-c3ccccc3)c2)n[nH]1` (single isomer, unassigned) [Example 44, Trans-3-(3-([1,1′-biphenyl]-3-yl)-1H-pyrazol-5-yl)-4-ethylpyrrolidine-1-carbonitrile]: the half-inhibitory concentration (IC50) is 1000 to 10000 nM.

Turning to `N#Cc1ccc(-c2ccnc(-c3nc([C@@H]4CCCN4C#N)no3)c2)cc1` [Example 176, (S)-2-(5-(4-(4-Cyanophenyl)pyridin-2-yl)-1,2,4-oxadiazol-3-yl)pyrrolidine-1-carbonitrile], the IC50 was 100 to 1000 nM.

(Values after patent publication US11352339B2 (MISSION THERAPEUTICS LIMITED, priority 2016, dated 2022).)
